Test results from a flash point compilation (Sun et al. 2020).

Compound | flash point
CNC(C)C [N-methylisopropylamine] | -20 °C
Cc1ccc(C)c(C)c1C [1,2,3,4-tetramethylbenzene] | 68 °C
C=CCCCCCCCC [1-decene] | 38 °C
N#Cc1ccccc1 [benzonitrile] | 70 °C
CCC(C)(C)c1ccccc1 [2-phenyl-2-methylbutane] | 59 °C
CC(C)Cc1ccccc1 [isobutylbenzene] | 50 °C
CCC(O)C(C)C (configuration not stated) [2-methyl-3-pentanol] | 46 °C
CCCC(CC)C(C)CC (configuration not stated) [4-ethyl-3-methylheptane] | 41 °C
CC(C)(C)SC(C)(C)C [di-tert-butylsulfide] | 27 °C
CCc1ccco1 [2-ethylfuran] | -2 °C
C=CCN [allylamine] | -28 °C
CC/C=C\CCC [cis-3-heptene] | -9 °C
C#CCCCCCC [1-octyne] | 16 °C
C=CCOC(=O)CCC [allylbutanoate] | 42 °C
CC(C)CC(C)O (configuration not stated) [4-methyl-2-pentanol] | 41 °C
CCc1cc(C)ccc1C [2-ethyl-1,4-dimethylbenzene] | 56 °C
CCCNCCC [dipropylamine] | 7 °C
CC(=O)CC(C)=O [2,4-pentanedione] | 38 °C
C1CCCCCCCC1 [cyclononane] | 43 °C
CCC(C)CC(C)CC (configuration not stated) [3,5-dimethylheptane] | 15 °C
CCCOCC [ethylpropylether] | -25 °C
CCN(C)C [N-ethyldimethylamine] | -36 °C
CCOC(=O)CCl [ethylchloroacetate] | 53 °C
C=C(C)C(=O)OCC [ethylmethacrylate] | 19 °C
c1ccc2ncccc2c1 [quinoline] | 101 °C
CCC(=O)OC [methylpropanoate] | -2 °C

Compound | flash point
COc1cccc(C)c1 [3-methylanisole] | 52 °C
CCCCCCCBr [1-bromoheptane] | 61 °C
Cc1ccccc1C [o-xylene] | 30 °C
CCCC1CCCCC1 [propylcyclohexane] | 31 °C
Cc1ccc(I)cc1 [4-iodotoluene] | 90 °C
c1ccsc1 [thiophene] | -9 °C
CC(=O)O [aceticacid] | 40 °C
ClCc1ccccc1 [benzylchloride] | 60 °C
C=CCSCCC [allylpropylsulfide] | 29 °C
CCCCC(=O)CCC [4-octanone] | 45 °C
CCC(CC)CC [3-ethylpentane] | -12 °C
COc1ccc(C)cc1 [4-methylanisole] | 53 °C
O=C1CCCCCC1 [cycloheptanone] | 56 °C
CCC(C)OC (configuration not stated) [2-methoxybutane] | -29 °C
CCC#CCCC [3-heptyne] | 5 °C
CCCCCCC(=O)CC [3-nonanone] | 63 °C
CCC(O)CC [3-pentanol] | 33 °C
CCCC(C)(C)CC [3,3-dimethylhexane] | -1 °C
CCCC(C)CCC [4-methylheptane] | 5 °C
Fc1ccccc1 [fluorobenzene] | -15 °C
CCCCCC1CCCC1=O (configuration not stated) [2-pentylcyclopentanone] | 78 °C
CCCCCBr [1-bromopentane] | 30 °C
CC/C=C/C(=O)O [trans-2-pentenoicacid] | 102 °C
C1COCCO1 [1,4-dioxane] | 11 °C
CCCCCC(C)(C)C [2,2-dimethylheptane] | 24 °C
CCC(=O)OCc1ccccc1 [benzylpropanoate] | 96 °C
